From ChEMBL document CHEMBL3588828, “A Selective, Cell-Permeable Nonphosphorylated Bicyclic Peptidyl Inhibitor against Peptidyl-Prolyl Isomerase Pin1” (J Med Chem, 2015)
pKd: −log10 of the molar value.

How the values were obtained:
[1] = biological target: Peptidyl-prolyl cis-trans isomerase NIMA-interacting 1 (Homo sapiens, UniProt Q13526, S16A/Y23A); assay: Binding affinity to N-terminal MBP fused and Texas-red-labeled full-length human Pin1 S16A/Y23A mutant expressed in Escherichia coli assessed as increase in fluorescence anisotropy by spectrofluorimetry; conditions: read-out: Kd
[2] = tested on: Peptidyl-prolyl cis-trans isomerase NIMA-interacting 1 (Homo sapiens), Q13526 [S16A,Y23A]; assay: Binding affinity to N-terminal MBP fused and Texas-red-labeled full-length human Pin1 S16A/Y23A mutant expressed in Escherichia coli assessed as increase in fluorescence anisotropy at 5 uM by spectrofluorimetry

| pKd [1] | SMILES | Activity [2] |
| --- | --- | --- |
| 5.32 | CN1CC(=O)N[C@H](CC(=O)O)C(=O)N2CCCC[C@@H]2C(=O)N[C@@H](Cc2ccc3ccccc3c2)C(=O)N[C@@H](CCCNC(=N)N)C(=O)NCCC(=O)NCCC(=O)N[C@H]2CNC(=O)c3cc(cc(c3)C(=O)N3CCC[C@H]3C1=O)C(=O)NC[C@@H](C(=O)N[C@@H](CCCCN)C(=O)O)NC(=O)[C@H](CCCNC(=N)N)NC(=O)[C@H](CCCNC(=N)N)NC(=O)[C@H](CCCNC(=N)N)NC(=O)[C@H](CCCNC(=N)N)NC(=O)[C@H](Cc1ccc3ccccc3c1)NC(=O)[C@H](Cc1ccccc1)NC2=O | – |
| 5.76 | C[C@@H]1NC(=O)CCNC(=O)[C@H](CCCNC(=N)N)NC(=O)[C@H](Cc2ccc3ccccc3c2)NC(=O)[C@H]2CCCCN2C(=O)[C@@H](CC(=O)O)NC(=O)CN(C)C(=O)[C@@H]2CCCN2C(=O)c2cc3cc(c2)C(=O)NC[C@@H](C(=O)N[C@@H](CCCCN)C(=O)O)NC(=O)[C@H](CCCNC(=N)N)NC(=O)[C@H](CCCNC(=N)N)NC(=O)[C@H](CCCNC(=N)N)NC(=O)[C@H](CCCNC(=N)N)NC(=O)[C@H](Cc2ccc4ccccc4c2)NC(=O)[C@H](Cc2ccccc2)NC(=O)[C@H](CNC3=O)NC1=O | – |
| 5.60 | C[C@@H]1NC(=O)[C@H](CCCNC(=N)N)NC(=O)[C@H](Cc2ccc3ccccc3c2)NC(=O)[C@H]2CCCCN2C(=O)[C@@H](CC(=O)O)NC(=O)CN(C)C(=O)[C@@H]2CCCN2C(=O)c2cc3cc(c2)C(=O)NC[C@H](NC(=O)[C@@H](C)NC(=O)[C@@H](C)NC1=O)C(=O)N[C@@H](Cc1ccccc1)C(=O)N[C@@H](Cc1ccc2ccccc2c1)C(=O)N[C@@H](CCCNC(=N)N)C(=O)N[C@@H](CCCNC(=N)N)C(=O)N[C@@H](CCCNC(=N)N)C(=O)N[C@@H](CCCNC(=N)N)C(=O)N[C@H](C(=O)N[C@@H](CCCCN)C(=O)O)CNC3=O | – |
| 5.77 | C[C@@H]1NC(=O)[C@H](CCCNC(=N)N)NC(=O)[C@H](Cc2ccc3ccccc3c2)NC(=O)[C@H]2CCCCN2C(=O)[C@@H]([C@H](C)O)NC(=O)[C@H](Cc2cnc[nH]2)NC(=O)[C@@H](Cc2ccccc2)NC(=O)c2cc3cc(c2)C(=O)NC[C@H](NC(=O)[C@@H](C)NC1=O)C(=O)N[C@@H](Cc1ccccc1)C(=O)N[C@@H](Cc1ccc2ccccc2c1)C(=O)N[C@@H](CCCNC(=N)N)C(=O)N[C@@H](CCCNC(=N)N)C(=O)N[C@@H](CCCNC(=N)N)C(=O)N[C@@H](CCCNC(=N)N)C(=O)N[C@H](C(=O)N[C@@H](CCCCN)C(=O)O)CNC3=O | – |
| 5.50 | C[C@H]1NC(=O)[C@H](CC(=O)O)NC(=O)[C@H](CCCNC(=N)N)NC(=O)[C@H](Cc2ccc3ccccc3c2)NC(=O)[C@H]2CCCCN2C(=O)[C@@H](CC(=O)O)NC(=O)CN(C)C(=O)[C@@H]2CCCN2C(=O)c2cc3cc(c2)C(=O)NC[C@H](NC1=O)C(=O)N[C@@H](Cc1ccccc1)C(=O)N[C@@H](Cc1ccc2ccccc2c1)C(=O)N[C@@H](CCCNC(=N)N)C(=O)N[C@@H](CCCNC(=N)N)C(=O)N[C@@H](CCCNC(=N)N)C(=O)N[C@@H](CCCNC(=N)N)C(=O)N[C@H](C(=O)N[C@@H](CCCCN)C(=O)O)CNC3=O | – |
| 5.86 | C[C@@H]1NC(=O)[C@H](CCCNC(=N)N)NC(=O)[C@H](Cc2ccc3ccccc3c2)NC(=O)[C@H]2CCCCN2C(=O)[C@@H]([C@H](C)O)NC(=O)[C@H](Cc2ccc(F)cc2)NC(=O)[C@@H](Cc2ccccc2)NC(=O)c2cc3cc(c2)C(=O)NC[C@H](NC(=O)[C@@H](Cc2ccccc2)NC1=O)C(=O)N[C@@H](CCCNC(=N)N)C(=O)N[C@@H](CCCNC(=N)N)C(=O)N[C@@H](Cc1ccc2ccccc2c1)C(=O)N[C@@H](Cc1ccccc1)C(=O)N[C@@H](CCCNC(=N)N)C(=O)N[C@@H](CCCNC(=N)N)C(=O)N[C@H](C(=O)N[C@@H](CCCCN)C(=O)O)CNC3=O | – |
| 5.66 | C[C@H]1NC(=O)[C@H](Cc2ccc(O)cc2)NC(=O)[C@H](CCCNC(=N)N)NC(=O)[C@H](Cc2ccc3ccccc3c2)NC(=O)[C@H]2CCCCN2C(=O)[C@@H](CC(=O)O)NC(=O)CN(C)C(=O)[C@@H]2CCCN2C(=O)c2cc3cc(c2)C(=O)NC[C@H](NC1=O)C(=O)N[C@@H](Cc1ccccc1)C(=O)N[C@@H](Cc1ccc2ccccc2c1)C(=O)N[C@@H](CCCNC(=N)N)C(=O)N[C@@H](CCCNC(=N)N)C(=O)N[C@@H](CCCNC(=N)N)C(=O)N[C@@H](CCCNC(=N)N)C(=O)N[C@H](C(=O)N[C@@H](CCCCN)C(=O)O)CNC3=O | – |
| 6.14 | C[C@H]1NC(=O)[C@H](CCCNC(=N)N)NC(=O)[C@H](CCCNC(=N)N)NC(=O)[C@H](Cc2ccc3ccccc3c2)NC(=O)[C@H]2CCCCN2C(=O)[C@@H](CC(=O)O)NC(=O)CN(C)C(=O)[C@@H]2CCCN2C(=O)c2cc3cc(c2)C(=O)NC[C@H](NC1=O)C(=O)N[C@@H](Cc1ccccc1)C(=O)N[C@@H](Cc1ccc2ccccc2c1)C(=O)N[C@@H](CCCNC(=N)N)C(=O)N[C@@H](CCCNC(=N)N)C(=O)N[C@@H](CCCNC(=N)N)C(=O)N[C@@H](CCCNC(=N)N)C(=O)N[C@H](C(=O)N[C@@H](CCCCN)C(=O)O)CNC3=O | – |
| 5.68 | C[C@@H]1NC(=O)[C@H](CCCNC(=N)N)NC(=O)[C@H](Cc2ccc3ccccc3c2)NC(=O)[C@H]2CCCCN2C(=O)[C@@H](CC(=O)O)NC(=O)CN(C)C(=O)[C@@H]2CCCN2C(=O)c2cc3cc(c2)C(=O)NC[C@@H](C(=O)N[C@@H](CCCCN)C(=O)O)NC(=O)[C@H](CCCNC(=N)N)NC(=O)[C@H](CCCNC(=N)N)NC(=O)[C@H](CCCNC(=N)N)NC(=O)[C@H](CCCNC(=N)N)NC(=O)[C@H](Cc2ccc4ccccc4c2)NC(=O)[C@H](Cc2ccccc2)NC(=O)[C@H](CNC3=O)NC(=O)CCNC1=O | – |

| SMILES | pKd [1] | Activity [2] |
| --- | --- | --- |
| C[C@@H]1NC(=O)[C@H](CCCNC(=N)N)NC(=O)[C@H](Cc2ccc3ccccc3c2)NC(=O)[C@H]2CCCCN2C(=O)[C@@H](CC(=O)O)NC(=O)CN(C)C(=O)[C@@H]2CCCN2C(=O)c2cc3cc(c2)C(=O)NC[C@H](NC(=O)[C@@H](C)NC1=O)C(=O)N[C@@H](Cc1ccccc1)C(=O)N[C@@H](Cc1ccc2ccccc2c1)C(=O)N[C@@H](CCCNC(=N)N)C(=O)N[C@@H](CCCNC(=N)N)C(=O)N[C@@H](CCCNC(=N)N)C(=O)N[C@@H](CCCNC(=N)N)C(=O)N[C@H](C(=O)N[C@@H](CCCCN)C(=O)O)CNC3=O (stereo in doubt; 10) | 5.47 | – |
| C[C@@H]1NC(=O)[C@H](CCCNC(=N)N)NC(=O)[C@H](Cc2ccc3ccccc3c2)NC(=O)[C@H]2CCCCN2C(=O)[C@@H]([C@H](C)O)NC(=O)[C@H](c2ccccc2)NC(=O)[C@H](Cc2cnc[nH]2)NC(=O)c2cc3cc(c2)C(=O)NC[C@H](NC(=O)[C@@H](C)NC1=O)C(=O)N[C@@H](Cc1ccccc1)C(=O)N[C@@H](Cc1ccc2ccccc2c1)C(=O)N[C@@H](CCCNC(=N)N)C(=O)N[C@@H](CCCNC(=N)N)C(=O)N[C@@H](CCCNC(=N)N)C(=O)N[C@@H](CCCNC(=N)N)C(=O)N[C@H](C(=O)N[C@@H](CCCCN)C(=O)O)CNC3=O | 5.85 | > 50% |
| CC[C@H](C)[C@@H]1NC(=O)[C@H](Cc2ccccc2)N(C)C(=O)c2cc3cc(c2)C(=O)NC[C@H](NC(=O)[C@@H](C)NC(=O)[C@H](C)NC(=O)[C@H](CCCNC(=N)N)NC(=O)[C@H](Cc2ccc4ccccc4c2)NC(=O)[C@H]2CCCCN2C(=O)[C@@H](CCC(=O)O)NC1=O)C(=O)N[C@@H](Cc1ccccc1)C(=O)N[C@@H](Cc1ccc2ccccc2c1)C(=O)N[C@@H](CCCNC(=N)N)C(=O)N[C@@H](CCCNC(=N)N)C(=O)N[C@@H](CCCNC(=N)N)C(=O)N[C@@H](CCCNC(=N)N)C(=O)N[C@H](C(=O)N[C@@H](CCCCN)C(=O)O)CNC3=O | 5.90 | > 50% |
| C[C@@H]1NC(=O)[C@H](CCCNC(=N)N)NC(=O)[C@H](Cc2ccc3ccccc3c2)NC(=O)[C@H]2CCCCN2C(=O)[C@@H]([C@H](C)O)NC(=O)[C@H](Cc2ccc(F)cc2)NC(=O)[C@@H](Cc2ccccc2)NC(=O)c2cc3cc(c2)C(=O)NC[C@@H](C(=O)N[C@@H](CCCCN)C(=O)O)NC(=O)[C@H](CCCNC(=N)N)NC(=O)[C@H](CCCNC(=N)N)NC(=O)[C@H](CCCNC(=N)N)NC(=O)[C@H](CCCNC(=N)N)NC(=O)[C@H](Cc2ccc4ccccc4c2)NC(=O)[C@H](Cc2ccccc2)NC(=O)[C@H](CNC3=O)NC1=O | 6.05 | – |
| C[C@@H]1NC(=O)[C@H](CCCNC(=N)N)NC(=O)[C@H](Cc2ccc3ccccc3c2)NC(=O)[C@H]2CCCCN2C(=O)[C@@H](CCC(=O)O)NC(=O)[C@H](Cc2cnc[nH]2)NC(=O)[C@H](c2ccccc2)NC(=O)c2cc3cc(c2)C(=O)NC[C@H](NC(=O)[C@@H](C)NC1=O)C(=O)N[C@@H](Cc1ccccc1)C(=O)N[C@@H](Cc1ccc2ccccc2c1)C(=O)N[C@@H](CCCNC(=N)N)C(=O)N[C@@H](CCCNC(=N)N)C(=O)N[C@@H](CCCNC(=N)N)C(=O)N[C@@H](CCCNC(=N)N)C(=O)N[C@H](C(=O)N[C@@H](CCCCN)C(=O)O)CNC3=O | 5.83 | > 50% |
| C[C@@H]1NC(=O)[C@H](CCCNC(=N)N)NC(=O)[C@H](Cc2ccc3ccccc3c2)NC(=O)[C@H]2CCCCN2C(=O)[C@@H](CC(=O)O)NC(=O)CN(C)C(=O)[C@@H]2CCCN2C(=O)c2cc3cc(c2)C(=O)NC[C@H](NC(=O)[C@@H](C)NC1=O)C(=O)N[C@@H](Cc1ccccc1)C(=O)N[C@@H](Cc1ccc2ccccc2c1)C(=O)N[C@@H](CCCNC(=N)N)C(=O)N[C@@H](CCCNC(=N)N)C(=O)N[C@@H](CCCNC(=N)N)C(=O)N[C@@H](CCCNC(=N)N)C(=O)N[C@H](C(=O)N[C@@H](CCCCN)C(=O)O)CNC3=O (stereo in doubt; 3) | 6.06 | – |
| C[C@@H]1NC(=O)[C@H](CCCNC(=N)N)NC(=O)[C@H](Cc2ccc3ccccc3c2)NC(=O)[C@H]2CCCCN2C(=O)[C@@H]([C@H](C)O)NC(=O)CNC(=O)[C@H](Cc2ccccc2)N(C)C(=O)c2cc3cc(c2)C(=O)NC[C@H](NC(=O)[C@@H](C)NC1=O)C(=O)N[C@@H](Cc1ccccc1)C(=O)N[C@@H](Cc1ccc2ccccc2c1)C(=O)N[C@@H](CCCNC(=N)N)C(=O)N[C@@H](CCCNC(=N)N)C(=O)N[C@@H](CCCNC(=N)N)C(=O)N[C@@H](CCCNC(=N)N)C(=O)N[C@H](C(=O)N[C@@H](CCCCN)C(=O)O)CNC3=O | 5.97 | > 50% |
